Publication PMC3003687, “α-Galactosylceramide Analogs with Weak Agonist Activity for Human iNKT Cells Define New Candidate Anti-Inflammatory Agents” (PLoS ONE, 2010)

Tests used:
human iNKT cells = settings: cited from earlier work
human iNKT cell clones = assay: Cytokine responses of iNKT cell clones, Hela-CD1d cells compared with monocyte-derived DC as APC; format: cell-based; settings: limited analog concentrations
Excerpt: CD1d-transfected Hela cells might not be representative of the presentation by DCs, so we performed a comparative analysis, with more limited analog concentrations, between Hela-CD1d cells and monocyte-derived DC (Supplementary Figure S5). […] However we observed a higher cytokine levels produced upon stimulation with Hela cells, which can be explained by a higher CD1d expression.
Supplementary file pone.0014374.s005.tif: Figure S5 Comparison of cytokine responses of human iNKT cell clones between CD1d-transfected HeLa cells and Dendritic Cells, with a limited range of analog concentrations. CD1d-transfected HeLa cells (black bars) and monocyte-derived DCs (white bars) were incubated overnight in parallel with increasing concentrations of KRN7000, C20:2 (tested from left to right at 0.1, 1, 10 and 100 nM,) and higher concentrations of other analogs (10, 100 nM, 1 and 10 µM), then used as APC for iNKT cell stimulation. After 24 h of co-culture, supernatants were harvested, and cytokine levels were measured by ELISA. The sensitivity of detection was 27.4 pg/mL for IL-4 and 82.3 pg/mL for IL-13 and IFNγ. The data shown were generated with a CD4+ iNKT cell clone (HDD3) and a double negative (DN, HDE3). (0.12 MB TIF) Click here for additional data file.

hCD1d = target: T1, hCD1d (Homo sapiens, UniProt P15813); assay: Loading of hCD1d tetramers with variable glycolipid to CD1d ratios; format: binding; settings: 20 nM tetramers, 25 to 1000 fold molar excess of glycolipid to hCD1d, HDD3 clone
T1 construct: we generated soluble and fluorescent tetrameric hCD1d molecules loaded with each of the glycolipid analogs; made in house
Excerpt: To characterize in more detail the iNKT cell TCR recognition of αGalCer analogs presented by human CD1d, we generated soluble and fluorescent tetrameric hCD1d molecules loaded with each of the glycolipid analogs. […] This was similar to the previously reported failure of mouse CD1d tetramer loaded with lysosulfatide to bind detectably to murine non-invariant and sulfatide specific NKT cells, despite a clear reactivity to this lipid upon presentation by APCs; [40]. […] To quantitate their binding avidities to iNKT cell TCRs, we used titration of analog-loaded hCD1d tetramers to determine equilibrium dissociation constants (KD), which are inversely proportional to avidity (Figure 3A and 3B).
Figure 3 Characterization of human iNKT cell TCR interactions with analog-loaded tetramers. (A) iNKT cell clones were stained with titrated amounts of hCD1d tetramers loaded with the indicated glycolipids (abbreviations as in legend to Figure 1), and the measured MFI values are plotted for selected glycolipids. (B) The equilibrium dissociation constants (KD, inversely proportional to TCR avidity) were determined as the concentrations of tetramers required to yield 50% of maximal binding. Data shown were obtained using the CD4^+ iNKT cell clone HDD3, and similar results (not shown) were obtained with a second CD4^+ clone (HDD11) and a CD4^−8^− double negative iNKT cell clone (HDE3). (C) Analysis of iNKT cell clones labeled with 20 nM of hCD1d tetramers which were loaded with variable excesses of analog to constant hCD1d (25 to 1000 fold molar excess of glycolipid to hCD1d protein). The measured MFI values were normalized as the percent of the maximum staining intensity obtained with each analog loaded tetramer. Data presented were generated with HDD3 (CD4+) iNKT cell clone, and similar results (not shown) were obtained with HDE3 (DN) clone.

T1 sequence (P15813 20-301 limits assumed): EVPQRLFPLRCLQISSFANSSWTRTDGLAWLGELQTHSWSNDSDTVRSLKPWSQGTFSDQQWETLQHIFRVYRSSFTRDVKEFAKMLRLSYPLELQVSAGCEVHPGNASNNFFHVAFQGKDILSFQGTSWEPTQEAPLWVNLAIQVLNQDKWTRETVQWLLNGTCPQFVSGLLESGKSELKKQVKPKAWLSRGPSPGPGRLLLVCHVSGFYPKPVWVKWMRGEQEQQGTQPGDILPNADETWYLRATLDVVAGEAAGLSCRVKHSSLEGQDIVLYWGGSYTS
T1 sequence (P61769 21-119 partner): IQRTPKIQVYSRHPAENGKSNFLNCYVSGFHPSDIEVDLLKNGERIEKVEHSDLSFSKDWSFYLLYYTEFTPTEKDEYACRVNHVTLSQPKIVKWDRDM

Compound	agonist activity for human iNKT cells (human iNKT cells)	agonist strength with Hela-CD1d cells and DC (human iNKT cell clones)	lipid excess at which tetramers were efficiently loaded (hCD1d)
CCCCC/C=C\C/C=C\CCCCCCCCCC(=O)N[C@@H](CO[C@H]1O[C@H](CO)[C@H](O)[C@H](O)[C@H]1O)[C@H](O)[C@H](O)CCCCCCCCCCCCCC [C20:2]	strong agonist	strong agonists	
CCCCCCCCCCCCCCCCCCCCCCCCCC(=O)N[C@@H](CO[C@H]1O[C@H](CO)[C@H](O)[C@H](O)[C@H]1O)[C@H](O)[C@H](O)CCCCCCCCCCCCCC [KRN7000, reference compound]		strong agonists	25–50 fold
